# Results taken from patent US20220288156A1, “TREATMENT” (QUEEN MARY UNIVERSITY OF LONDON, priority 2019, published 2022).
# Key:
# [1] = tested on: AngII-stimulated mouse cardiomyocytes; assay: RNA-Seq of AngII-stimulated cardiomyocytes treated with ldCil, comparison with human heart data; type: cell-based
# Protocol: Primary mouse cardiomyocytes were isolated from the whole hearts of 1-3-day old C57/BL6 wild-type mice. Hearts were dissected and removed from the thoracic cavity, mechanically minced with scissors and digested in cardiomyocyte isolation enzyme 1 (200 μl per heart) and cardiomyocyte isolation enzyme 2 (10 μl per heart) (Pierce primary cardiomyocyte isolation kit, Thermo Scientific). Digested hearts were then homogenised by gently pipetting up to 30 times with a 1 ml pipette, and the resulting single cell suspension added to complete DMEM solution (DMEM, 10% FBS, 1% Penicillin Streptomycin stock solution). After combination of all cell suspensions, the total number of viable cells were counted, and plated at approximately 1 million cells per single well of a 6 well plate. The following day, wells were washed with PBS (without calcium and magnesium), and complete cardiomyocyte growth medium added. Complete cardiomyocyte medium thereafter was replaced every other day.
# (§1) Following 5 days culture at 37° C., 5% CO2, primary mouse cardiomyocytes were serum starved for 24 h in a 0.5 FBS-DMEM media. On day 6 cells were washed and refed with complete cardiomyocyte growth medium plus or minus 1 μM angiotensin II (Alfa Aesar), and this was repeated on day 7. In tandem to angiotensin II treatment, cells were either treated with vehicle or low dose Cilengitide (20 nM) (Bachem). On 8-day cardiomyocytes were lysed for RNA analysis.
# Medium was removed and cells were washed 3 times in PBS. 350 μl RLT lysis buffer (Qiagen) (plus 1:100 beta-mercaptoethanol) was added to each well to disrupt and lyse the cells. Cell lysate samples were then combined with an equal volume of 70% ethanol, before RNA was extracted according to the manufacturer's instructions, before being stored at −80° C. until required. For whole hearts, less than 100 mg of tissue was lysed with 700 μl RLT lysis buffer (Qiagen) (supplemented 1:100 beta-mercaptoethanol) in a QIAshredder (Qiagen) for 10 min. Tissues were then processed as above with the RNeasy mini kit.
# RNA-Seq was performed by Barts and the London Genome Centre on the Illumina NextSeq 500 platform, generating on average ˜15-17 million paired-end reads of 76 bp in length per sample. After quality check using FastQC, raw reads were mapped to the mouse genome (mm10, Genome Reference Consortium GRCm38) in the strand-specific mode using HISAT2 (65). Number of uniquely aligned reads (q>10) to the exonic region of each gene were counted using HTSeq (66) based on the GenCode annotation version M16 (Ensembl v91). Only genes that achieved at least one read count per million reads (cpm) in at least four samples (i.e., number of samples per group) were kept. Conditional quantile normalisation (cqn) was then performed accounting for gene length and GC content, and a log2 transformed reads per kilobase of transcript per million mapped reads RPKM expression matrix was subsequently generated. Differential expression analysis was performed using the ‘limma’ R package (67). Gene-set enrichment analysis (GSEA) was performed using the GSEA software (68) to identify dysregulated canonical pathways curated in the Molecular Signatures Database (MSigDB-C2-CP v6.2) (FDR q<0.1). RNA-Seq data have been deposited in Gene Expression Omnibus (GEO) under the accession number GSE127854.
# The GSE57338 microarray dataset of a total of 313 individuals which included 95 ischemic patients, 82 dilated cardiomyopathy patients, and 136 individuals with non-failing hearts, was downloaded from GEO. Differential expression analysis was performed using the ‘limma’ R package comparing ischemic vs non-failing and dilated vs non-failing. GSEA was performed using the GSEA software (PMID:16199517) to identify the dysregulated canonical pathways as described above. The overlap of differentially expressed gene and pathways (p<0.05) was then examined in relation to the mouse cardiomyocyte data. […]
# [2] = tested on: mouse cardiac endothelial cells; assay: RNA-Seq of cardiac endothelial cells treated with ldCil; type: cell-based
# Protocol: Primary mouse endothelial cells were isolated from the whole hearts of C57/BL6 3-7 day old mice. Hearts were removed, mechanically minced with scissors, and digested in pre-heated (37° C.) 10 ml 0.1% collagenase type I solution (Gibco Invitrogen) for 1 h. Usually 3 hearts were minced together for a single prep. The collagenase reaction was stopped by adding equal parts mouse lung endothelial cell (MLEC) media, and the digested tissue was homogenised in a dish by syringing up to 30 times with a 19 and 21-gauge needle, and then passed through a 70 μm pore-size cell strainer. Cells were centrifuged at 1500 rpm for 3 min, pellet was suspended and then incubated in a solution containing magnetic beads conjugated to a CD31 antibody (BD Pharmingen) to separate primary cardiac endothelial cells from the total cell population. Sorted cells were plated in T25 flasks coated with 0.1% gelatin, 10 μ/ml fibronectin and 30 μ/ml bovine collagen, suspended in mouse lung endothelial cell culture (MLEC) media and incubated at 37° C., 5% CO2. Cells were washed 3 or 4 times in PBS the next day to remove excess red blood cells and other cell-debris and growing medium applied. […]
# RNA-Seq was performed by Barts and the London Genome Centre on the Illumina NextSeq 500 platform, generating on average ˜15-17 million paired-end reads of 76 bp in length per sample. After quality check using FastQC, raw reads were mapped to the mouse genome (mm10, Genome Reference Consortium GRCm38) in the strand-specific mode using HISAT2 (65). Number of uniquely aligned reads (q>10) to the exonic region of each gene were counted using HTSeq (66) based on the GenCode annotation version M16 (Ensembl v91). Only genes that achieved at least one read count per million reads (cpm) in at least four samples (i.e., number of samples per group) were kept. Conditional quantile normalisation (cqn) was then performed accounting for gene length and GC content, and a log2 transformed reads per kilobase of transcript per million mapped reads RPKM expression matrix was subsequently generated. […]
# [3] = tested on: AngII-stressed mouse cardiomyocytes; assay: Western blot of TCA cycle enzymes in AngII-stressed cardiomyocytes; type: cell-based; conditions: Western blot densitometry
# Protocol: as §1
# Cardiomyocytes were prepared and treated as above. At the end of the experiment, cells were lysed with RIPA buffer for 10 min on ice and the cell debris pelleted by centrifugation of the lysate at 9300 g for 10 min at 4° C. Protein concentration was determined from the cell supernatant and 20 μg protein loaded onto 10% gels. Membranes were probed for succinate dehydrogenase (Abcam, ab178423), pyruvate dehydrogenase (Abcam, ab131263), aconitase (Abcam, ab129069) and GAPDH (Millipore, AB2302). Densitometric readings of band intensities were obtained using the JmageJ™ software.
# [4] = tested on: AAC model of heart failure; assay: Cardiac hypertrophy in AAC model (WGA cardiomyocyte perimeter, heart:body weight); type: in vivo, mouse; conditions: intervention mode, AAC surgery
# From the text: Male C57BL6 mice (Charles River) underwent AAC surgery at 4-5 weeks of age (between 20 and 22 g). Mice were anaesthetised with isoflurane, placed in a supine position on the procedure table, and an incision made along the ventral underbelly, extending from the xiphoid process of the sternum, down to the groin to reveal the abdominal muscle. The abdominal muscle was then cut the same distance along the linea alba to allow easy reattachment of the two halves. The two sides of the abdominal muscles were clipped back to reveal the abdominal gastrointestinal organs, and these were carefully manoeuvred to expose the underlying abdominal aorta. […] Hearts were halved longitudinally and either snap frozen in liquid nitrogen (for immunohistochemistry) or stored in an RNA later stabilisation solution (for RT-quantitative PCR) (ThermoFisher Scientific, Hertfordshire, UK).
# 5 μm snap-frozen sections were fixed in 10% acetone, washed in phosphate buffered saline, PBS, blocked in 5% normal goat serum/PBS for 1 h at room temperature and incubated with WGA directly conjugated to Alexa Fluor 488 (Invitrogen) (1:100) in blocking buffer (5% normal goat serum/PBS) for 2 h at room temperature. […] Images were taken with a Zeiss Axioplan microscope, and the cardiomyocyte size was analysed with ImageJ™ software. 100-200 cells per heart were measured to determine cardiomyocyte size.
# [5] = AngII vs AngII+ldCil, human failing vs non-failing
# [6] = human idiopathic dilated cardiomyopathy vs non-failing
# [7] = human ischemic heart vs non-failing
compound,measurement,setting,value
"CC(C)[C@H]1C(=O)N[C@@H](CCCN=C(N)N)C(=O)NCC(=O)N[C@@H](CC(=O)O)C(=O)N[C@H](Cc2ccccc2)C(=O)N1C [Cilengitide, c(f*VRGD)]",transcriptomic alterations induced by AngII,[1]; 1 μM AngII plus ldCil 20 nM,back to control treated cardiomyocyte levels
same,PI3K and Akt signalling pathways downregulated by AngII,[1]; AngII plus ldCil,fold change restoration of both these pathways are most highly expressed
same,TCA and oxidative stress pathways increased by AngII,[1]; AngII plus ldCil,restored
same,downregulated genes concordant with human failing heart restored to non-failing human heart levels,[1]; [5],13 genes
same,upregulated genes concordant with human failing heart restored to non-failing human heart levels,[1]; [5],8 genes
same,AngII-induced differential expression of pathways (GSEA),"[1]; AngII+ldCil compared to control, FDR q>0.1",no longer significant
same,concordantly downregulated pathways restored to non-failing human heart profiles,[1]; [6],8 pathways
same,concordantly upregulated pathways restored to non-failing human heart profiles,[1]; [6],4 pathways
same,concordant downregulated pathways restored,[1]; [7],5 pathways
same,concordant pathways restored,[1]; [7],6 pathways
same,concordant upregulated pathways restored,[1]; [7],1 pathways
same,concordantly differentially expressed genes,[2]; 24 h and 48 h ldCil treatment vs control,54 genes
same,"expression of proangiogenic or cardioprotective regulators (Csf2rb, Eln, Nov, CCL7, Mt2, Socs2, Fgf23, Slc30a1, Col6a3, Mt1, Ggt5, Adam8)",[2]; both 24 h and 48 h,differentially upregulated
same,"gene sets involved in mitosis, DNA repair and cell cycle (enrichment analysis)",[2]; both timepoints,significant increases
same,pyruvate dehydrogenase protein expression,[3],rescues the elevated expression
same,heart:body weight ratio,[4],blunted increases
same,cardiomyocyte perimeter (WGA stained sections),[4]; compared with vehicle,reduced
